Where “and” joins values, the source holds several entries; their conditions need not be identical. Identical values can stand only once.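 96-well plates; 48 h exposure; 5 concentrations. Endpoints by linear interpolation between flanking doses. Not reached: highest tested concentration assigned. Abbreviation: GI50, concentration required for 50% inhibition of growth. TGI is the concentration that stops growth completely.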

Experimental findings from PubChem BioAssay (NCI) are described below.

The test system of the test is MDA-MB-468 breast. Put plainly: DTP human tumour cell line panel, 48 h.

Broadly, the GI50 is the concentration at which growth is held to half of that of the control. A word on the TGI: it is the concentration giving total growth inhibition. Turning to `COc1cc2c(cc1O)c(=O)n(CCN(C)C)c1c3cc4c(cc3ncc21)OCO4`, the GI50 was below 10 nM and the concentration for total growth inhibition (TGI) was determined as 14 nM.
The corresponding values for `S=C1SCN(Cc2ccccc2)CN1Cc1ccccc1` are 1200 nM and 17100 nM.
In the case of `O=C1/C(=C/c2ccc(F)cc2)CN(C(=O)C(Cl)Cl)C/C1=C\c1ccc(F)cc1`, the GI50 was 203 nM and the total growth inhibition concentration (TGI) amounted to 480 nM.
For the compound `C#Cc1cccc(NC(=O)c2cccc(NC(=O)CCl)c2)c1`, the GI50 was 17400 nM and the concentration for total growth inhibition (TGI) came to 52700 nM.
On to `CCn1c(SCC(=O)Nc2cc(C(F)(F)F)ccc2Cl)nc2ccccc2c1=O`, for which the GI50 was 14000 nM and the TGI was above 100000 nM.
For `CC(=O)Nc1ccc(OC(C)=O)cc1`, the concentration for 50% growth inhibition (GI50) is below 10 nM and the total growth inhibition concentration (TGI) was below 101 nM.
The corresponding values for `O=C(c1ccccc1)C1OC1C(=O)c1ccccc1` (stereo not drawn) are 1710 nM and 6720 nM.
For `O=c1cc(-c2ccccc2)oc2c1ccc1ccccc12`, the GI50 is 23600 nM and the TGI came to 95400 nM.
Take `COc1c(O)cc2c(c1OC)-c1ccc(SC)c(=O)cc1C(NC(C)=O)CC2` (stereo not drawn): the GI50 was 3020 nM and the TGI was above 100000 nM.
The corresponding values for `COc1ccc([C@@H]2[C@@H](O)C(=O)N2c2cc(OC)c(OC)c(OC)c2)cc1Cl` are below 14.1 nM and above 35900 nM.
`O=C1c2ccccc2C(=O)c2c1oc1c2c(=O)[nH]c2ccc(Cl)cc21`: the GI50 is 249 nM and the TGI is 868 nM.
With `CCOC(=O)c1c2c(n3ccc(NC(=O)CCN4CCCCC4)cc13)C(=O)c1ncccc1C2=O`, the GI50 is 1760 nM and the TGI came to 3390 nM.
Take `C/C(CC(C)(C)N1CC1)=N\NC(=O)Nc1cccc2ccccc12`: the GI50 is 1920 nM and the TGI amounted to 4610 nM.
`COc1ccc(C2CC(c3ccc(OC)cc3O)=NN2c2ccc(S(N)(=O)=O)cc2)cc1` (stereo not drawn): the GI50 was 22300 nM and the TGI was above 100000 nM.
For the compound `CC[C@]12C=CCN3CC[C@@]4(c5ccc(OC)cc5N(C)[C@H]4[C@@](O)(C(=O)OC)[C@@H]1OC(=O)CCC(=O)O[C@H]1CC[C@H]4[C@@H]5CC[C@H]6CC(=O)CC[C@]6(C)[C@H]5CC[C@]14C)[C@@H]32`, the GI50 was 3130 nM and the TGI is above 100000 nM.
Consider `COc1ccc(-c2cc(-c3ccc(OC)cc3)nc(NCCCNc3ccnc4cc(Cl)ccc34)n2)cc1`, for which the GI50 is 1270 nM and the TGI is 2790 nM.
With `CCc1cccc(NC(=O)Nc2ccc(Oc3ccc4nc(NC(=O)OC)[nH]c4c3)cc2)c1`, the GI50 is 75.1 nM and the TGI was determined as 2960 nM.
The corresponding values for `CCCCc1n(Cc2ccc3ccccc3n2)cc[n+]1Cc1ccc2ccccc2n1` are 244 nM and 1640 nM.
As for `O=C(CCCC(=O)N/N=C/c1cc(Cl)ccc1O)N/N=C\c1cc(Cl)ccc1O`, the GI50 is 2220 nM and the TGI stood at 9300 nM.
In the case of `COc1ccc(CNCCCN2C(=O)c3ccc4c5c(ccc(c35)C2=O)C(=O)N(CCCNCc2ccc(OC)c(OC)c2OC)C4=O)c(OC)c1OC`, the GI50 was 79.3 nM and the total growth inhibition concentration (TGI) was 151 nM.
For `O=C1c2cc3c(cc2-c2c1c1ccc(F)cc1c(=O)n2C[C@H](O)[C@H](O)[C@H](O)CO)OCO3`, the GI50 was 64.6 nM and the TGI stood at 213 nM.
As to `CC1=C2[C@@H](CC1)[C@]1(C)O[C@@](C(C)C)(C[C@H]1OC(=O)CO)[C@H]2OC(=O)CCCc1ccccc1`, the GI50 is 12400 nM and the concentration for total growth inhibition (TGI) was 26300 nM.
The corresponding values for `COC(=O)C1=C(C(=O)ON)[C@@H]2C=C[C@@]1([C@@H](Cc1ccccc1)Nc1ccccc1)O2` are 1480 nM and 2970 nM.
In the case of `Cc1c[nH]c(=O)n(Cc2nnc(CCC(=O)c3nc4ccccc4[nH]3)o2)c1=O`, the GI50 was 156 nM and the TGI turned out to be 553 nM.
For `CCN1C(=O)N(CC)C2C1NN=c1s/c(=C\c3ccc(C(F)(F)F)cc3)c(=O)n12` (stereo not drawn), the 50% growth inhibitory concentration (GI50) was 318 nM and the TGI came to 24200 nM.
As to `COc1cc(NS(C)(=O)=O)ccc1Cc1c2ccccc2nc2ccccc12`, the GI50 is 310 nM and the total growth inhibition concentration (TGI) was determined as 1810 nM.
`O=c1oc2ccc(Cl)cc2c(=O)n1-c1ccc(F)cc1F`: the GI50 is 1980 nM and the TGI came out at 5710 nM.
As for `O=C(Nc1n[nH]c2nc(-c3ccc(O)cc3)c(Br)cc12)C1CC1`, the GI50 was 3930 nM and the TGI was 8790 nM.
In the case of `Cc1ccc(-c2nc(/C=N/Nc3cc(C)nc4ccc(Br)cc34)c(C)o2)cc1`, the GI50 was 1950 nM and the TGI is 3870 nM.
On to `CC(C)=Cc1cccc2[nH]c(O)c(N=Nc3ccc(S(N)(=O)=O)cc3)c12`, for which the GI50 is above 5220 nM and the TGI is above 25000 nM.
In the case of `COc1ccc(C2=NN(C(C)=O)C(c3ccc(Oc4ccnc5cc(Cl)ccc45)c(OC)c3)C2)cc1` (stereo not drawn), the GI50 was 7430 nM and the TGI was 65100 nM.
In the case of `CC[C@H]1CCC/C=C/[C@@H]2C[C@H](O)C[C@H]2[C@H](O)/C=C/C(=O)O1`, the TGI turned out to be 16.7 nM.
With `CCCS(=O)(=O)Nc1cccc(Nc2ncnc3cc(NC(=O)CCl)ccc23)c1Cl`, the GI50 was 3160 nM and the TGI amounted to 8520 nM.
For `CCCCOc1ccc(S(=O)(=O)N2CCN(c3nccc(N4CCOCC4)n3)CC2)cc1`, the GI50 was 456 nM and the TGI is 2530 nM.
Take `COc1ccc2nc3c(cc2c1)C(=O)CC(c1ccccc1)C3` (stereo not drawn): the GI50 is 4080 nM and the TGI is above 100000 nM.
As to `O=[N+]([O-])c1ccc(N=Nc2c(Cl)cc(O)cc2Cl)cc1`, the GI50 is 772 nM and the TGI is 5810 nM.
For the compound `O=C(Nc1cn[nH]c1-c1nc2ccc(CN3CCOCC3)cc2[nH]1)NC1CC1`, the GI50 was 35.5 nM and 207 nM; the TGI was 1670 nM and 9370 nM.
For `CCOC(=O)Nc1ccc2c(c1)C(=O)N(CC)c1ccccc1O2`, the GI50 is 201 nM.
Consider `CCN(CC)CCn1c(=O)c2cc(OC)c(OC)cc2c2ccc3cc4c(cc3c21)OCO4`, for which the GI50 is 840 nM and the TGI was found to be 19800 nM.
Take `Fc1ccc(-c2ncn(CCCN3CCOCC3)c2-c2ccncc2)cc1`: the GI50 is above 25000 nM and the TGI is above 25000 nM.
